Patent EP4095134A1, “POLYCYCLIC COMPOUNDS FOR THE TREATMENT OF NEUROLOGICAL INDICATIONS” (UCL Business Ltd, priority 2021, dated 2022)
Read-outs that look alike come from different tables or passages of the source.

Experiments:
[1] = CNS penetration, single compound oral or intravenous administration, brain and plasma by LC-MS/MS; type: in vivo, C57B16/J mice; conditions: mouse
Experimental: To assess pharmacokinetic properties and CNS penetration of compounds, compounds were administered to mice via the oral and intravenous routes. For oral dosing, compound solutions were prepared in a suitable vehicle (such as 10% PEG400/5% Kolliphor EL/85% H2O) at a concentration of 0.5mg/mL. Compounds were dosed via oral gavage at a dosing volume of 10mL/kg to C57B16/J mice, for a final dose of 5mg/kg. Animals were culled at 8 timepoints to 24 hours, and plasma and brain samples collected for bioanalysis.
For intravenous dosing, compound solutions were prepared in a suitable vehicle (such as 10% DMSO/90%HPCD (20%)) at a concentration of 0.2mg/mL. Compound was administered via the intravenous route in a dosing volume of 5mL/kg, for a final dose of 1mg/kg. Animals were culled at various timepoints out to 24 hours, and plasma and brain collected for bioanalysis.
For bioanalysis, compound was prepared in DMSO at a final concentration of 1mg/mL. Analytical standards were prepared from the initial 1mg/mL stock solution of compound, with a 12-point standard curve range from 0.5ng/mL to 2000ng/mL, with independent quality control tests from 1ng/mL to 1000ng/mL run to validate the standards. All standards and QC samples were matrix matched to eliminate possible suppression. Plasma samples were prepared with a 1:10 dilution in plasma. Brain tissue samples were homogenized in 0.1M phosphate buffer solution at a ratio of 1:4, and used without further dilution. Dose solutions were diluted in a control matrix to a relative concentration that fell on the standard curve. Cold acetonitrile containing internal standard was added to all samples, standards, dose samples and QC samples; samples were then centrifuged for 30 minutes at 4000rpm. After centrifugation, supernatant was transferred to a new 96-well plate, diluted with an equal volume of water and mixed thoroughly before LC-MS analysis.
Supernatents were analysed by LC-MS/MS. From the analysis data a response ratio was obtained using the formula Response Ratio = Test Peak Area/Internal Standard Peak Area. From the standard curve, the test peak area was converted to concentration of test compound.
(§1) To establish CNS penetration, the ratio of the concentration of each compound in the […] was assessed.

P2Y1 receptor = target: T1, P2Y1 receptor (Homo sapiens, UniProt P47900); assay: P2Y1 IP1 accumulation HTRF assay, antagonism of agonist MRS2365 in stably transfected cells; type: cell-based
T1 construct: expressed in transfected cells
T1 sequence (P47900 whole entry): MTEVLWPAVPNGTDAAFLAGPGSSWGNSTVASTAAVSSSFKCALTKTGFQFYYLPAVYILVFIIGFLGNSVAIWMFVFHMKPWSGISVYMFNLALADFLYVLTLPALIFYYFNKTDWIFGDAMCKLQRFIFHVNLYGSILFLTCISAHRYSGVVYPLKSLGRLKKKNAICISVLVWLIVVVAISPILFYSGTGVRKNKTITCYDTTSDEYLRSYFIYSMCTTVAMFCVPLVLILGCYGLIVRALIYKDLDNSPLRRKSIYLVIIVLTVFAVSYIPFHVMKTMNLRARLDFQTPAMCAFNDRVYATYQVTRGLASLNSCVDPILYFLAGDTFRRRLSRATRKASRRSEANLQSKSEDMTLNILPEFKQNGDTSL
How it was run: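 HTRF IP1 accumulation in stably P2Y1-overexpressing cells, plated the day before. Compounds pre-incubated 1 hour (10-point semi-log curve from 10µM, 0.1% DMSO), then 5nM MRS2365 added for 60 minutes, both at 37°C / 5% CO2. IP1 interpolated from standard curve; IC50 from N ≥ 4 runs.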

[2] = CNS penetration, intravenous cassette dosing, brain and plasma by LC-MS/MS; type: in vivo, C57B16/J mice; conditions: mouse, iv (0.4 mg/kg), t = 2 hr
Experimental: To assess penetration of compounds into the mouse central nervous system, intravenous pharmacokinetic studies were undertaken in C57B16/J mice. In each study, up to five compounds were formulated in a vehicle comprising DMSO, Kolliphor EL and HPCD (20% w/v) to a final dose for each compound of 0.4mg/kg. Compounds were then combined into a single dosing solution and administered together via the intravenous route into 24 mice. Total compound dose administered to each mouse was 2mg/kg. Mice were culled at 0.08, 0.25, 0.5, 1, 2, 4, 8 and 24 hours post dosing, and brain and plasma collected for bioanalysis.
For bioanalysis, compounds were prepared in DMSO and aliquoted together to ensure a final concentration of 1mg/mL per compound in DMSO. Analytical standards were prepared from the initial 1mg/mL stock solution of compound, with a 12-point standard curve range from 0.5ng/mL to 2000ng/mL, with independent quality control tests from 1ng/mL to 1000ng/mL run to validate the standards. All standards and QC samples were matrix matched to eliminate possible suppression. Plasma samples were prepared with a 1:10 dilution in plasma. […]
Supernatents were analysed by LC-MS/MS. […]
as §1

[3] = brain, 1 mg/kg, iv, single compound, AUC0-24h, read-out: CNS penetration: total brain to plasma ratio AUC0-24h iv
[4] = brain, 1 mg/kg, iv, single compound, t = 2 h, read-out: CNS penetration: total brain to plasma ratio @ t =2 h iv
[5] = brain, po, p.o (5 mg/kg), AUC 0-24 h, read-out: CNS penetration: total brain to plasma ratio AUC 0-24 h
[6] = Example 2 table, as for example 1

Row | SMILES | Kp at 24 h [1, 5] | IC50 (P2Y1 receptor; [6]) | also measured
1 | O=C(Nc1ccc(OC(F)(F)F)cc1)Nc1cccnc1Oc1ccccc1[C@@]1(C(F)(F)F)CCO1 [drawing 315] | 2.6 | 68 nM | Kp at 24 h [1, 3]: 3.3; Kp at 2 h [1, 4]: 2.8
2 | Cc1ccc(NC(=O)Nc2ccc(OC(F)(F)F)cc2F)c(Oc2ccccc2[C@@]2(C(F)(F)F)CCO2)n1 [drawing 319] | 1.7 | 34 nM | 
3 | O=C(Nc1ccc(OC(F)(F)F)cc1)Nc1cccnc1Oc1ccccc1[C@]1(C(F)(F)F)CCO1 [drawing 316] | 2.4 | 119 nM | Kp at 24 h [1, 3]: 3.1; Kp at 2 h [1, 4]: 3.2
4 | Cc1ccc(NC(=O)Nc2ccc(Cl)cc2F)c(Oc2ccccc2[C@@]2(C(F)(F)F)CCO2)n1 [drawing 320] | 1.3 | 41 nM | 
5 | CC1(C)CN(c2ccccc2NC(=O)Nc2ccc(OC(F)(F)F)cc2)c2c(O)ccc(-c3ccc(Cl)cc3)c21 [RS 1, 1-(2-(4-(4-chlorophenyl)-7-hydroxy-3,3-dimethylindolin-1-yl)phenyl)-3-(4-(trifluoromethoxy)phenyl)urea, reference compound] |  | 33 nM | CNS penetration: total brain to plasma ratio [2]: BLLQ^d iv
6 | Cc1ccc(NC(=O)Nc2ccc(OC(F)(F)F)cc2)c(Oc2ccccc2C(C)(C)C)n1 [RS2, 1-(2-(2-(tert-butyl)phenoxy)-6-methylpyridin-3-yl)-3-(4-(trifluoromethoxy)phenyl)urea] |  |  | CNS penetration: total brain to plasma ratio [2]: BLLQ^d iv
7 | O=C(Nc1ccc(OC(F)(F)F)cc1)Nc1cccnc1Oc1ccccc1C1(C(F)(F)F)CCO1 (stereo not shown) |  | 84 nM | Kp ([1]; C57B16/J, brain and plasma, 1 mg/kg, iv, single compound, AUC0-24h, read-out: CNS penetration: total brain to plasma ratio AUC0-24h iv): 2.1; Kp at 2 h ([1]; C57B16/J, brain and plasma, 1 mg/kg, iv, single compound, t = 2 h, read-out: CNS penetration: total brain to plasma ratio @ t =2 h iv): 1.7; Kp ([1]; C57B16/J, brain and plasma, oral, p.o (5 mg/kg), AUC 0-24 h, read-out: CNS penetration: total brain to plasma ratio AUC 0-24 h): 1.9
8 | CN1CC[C@@]1(c1ccccc1Oc1ncccc1NC(=O)Nc1ccc(OC(F)(F)F)cc1)C(F)(F)F (single isomer, unassigned) |  | 39 nM | Kp at 2 h ([1]; C57B16/J, brain and plasma, po, p.o (5 mg/kg), value at t = 2h, read-out: CNS penetration: total brain to plasma ratio po (value at t = 2h)): 2.4
9 | Cc1ccc(Nc2nnc(C(F)F)s2)c(Oc2ccc(F)cc2C2(C(F)(F)F)CCO2)n1 (racemic) [S76] |  |  | IC50 (P2Y1 receptor; racemic, 5nM MRS2365, values rounded to nearest whole number, N >= 4): 3050 nM
